From patent US4667030A, “Hydrazide succinimide derivatives of antineoplastic indole-dihydroindole alkaloids” (priority 1985, dated 1987)
≈ marks a conversion by molar mass, not a printed value. Counter-ions that a name gives are not always drawn.

How the values were obtained:
[1] = test system: C-26 colon carcinoma; assay: In vivo test, transplanted C-26 colon carcinoma in mice; conditions: for activity against transplanted tumor: C-26 colon carcinoma, mice
[2] = test system: 6C3HED lymphosarcoma; assay: In vivo test, transplanted 6C3HED lymphosarcoma in mice; conditions: for activity against transplanted tumor: 6C3HED lymphosarcoma, mice; for % INHIBITION / In vivo test: Toxic: 6C3HED
[3] = test system: X-5563 plasma cell myeloma; assay: In vivo test, transplanted X-5563 plasma cell myeloma in mice; conditions: for activity against transplanted tumor: X-5563 plasma cell myeloma, mice
[4] = test system: B-16 Sub.C. melanoma; assay: In vivo test, transplanted B-16 Sub.C. melanoma in mice; conditions: for activity against transplanted tumor: B-16 Sub.C. melanoma, mice
[5] = test system: CCRF-CEM, a human acute lymphoblastic leukemia cell line; assay: CCRF-CEM cytotoxicity screen (cytostatic activity); format: cell-based; conditions: for IC50: Homo sapiens, read-out: IC50 (50% minimum inhibitory concentration)
Procedure: The compounds of this invention have utility as anti-neoplastic compounds active against transplanted tumors in mice. They also have […]. As evidence of such utility, the cytostatic activity of the compounds was measured by standard procedures against CCRF-CEM, a human acute lymphoblastic leukemia cell line. In the table, column 1 gives the name of the compound, and column 2 the 50% minimum inhibitory concentration of the drug from column 1 in mcg./ml.

[6] = test system: vincristine-resistant leukemias; conditions: common neoplasms including germ-cell tumors; cited from earlier work

What does the source list for CC[C@]1(O)C[C@@H]2CN(CCc3c([nH]c4ccccc34)[C@@](C(=O)OC)(c3cc4c(cc3OC)N(C)[C@H]3[C@@](O)(C(=O)NN5C(=O)CCC5=O)[C@H](O)[C@]5(CC)C=CCN6CC[C@]43[C@@H]65)C2)C1 [4-desacetyl VLB 3-carboxhydrazide N^2-succinimide]?
activity against transplanted tumor [1]: outstanding activity; activity against transplanted tumor [2]: outstanding activity; activity against transplanted tumor [3]: outstanding activity; activity against transplanted tumor [4]: outstanding activity

For CC[C@H]1C[C@@H]2CN(CCc3c([nH]c4ccccc34)[C@@](C(=O)OC)(c3cc4c(cc3OC)N(C)[C@H]3[C@@](O)(C(=O)NN5C(=O)CCC5=O)[C@H](O)[C@]5(CC)C=CCN6CC[C@]43[C@@H]65)C2)C1 [4'-deoxy-4-desacetylleurosidine 3-carboxhydrazide N^2-succinimide sulfate], which IC50 [5] is on record?
The IC50 was 0.075 µg/mL.

With CC[C@]1(O)C[C@@H]2CN(CCc3c([nH]c4ccccc34)[C@@](C(=O)OC)(c3cc4c(cc3OC)N(C)[C@H]3[C@@](O)(C(N)=O)[C@H](O)[C@]5(CC)C=CCN6CC[C@]43[C@@H]65)C2)C1 [vindesine, 4-desacetyl VLB 3-carboxamide] as the molecule, how does the “effectiveness in treating leukemias and neoplasms” value [6] read?
Its value is “effective in treating some vincristine-resistant leukemias in addition to many common neoplasms including germ-cell tumors”.

What does the source list for CC[C@]1(O)C[C@@H]2CN(CCc3c([nH]c4ccccc34)[C@@](C(=O)OC)(c3cc4c(cc3OC)N(C)[C@H]3[C@@](O)(C(=O)NN5C(=O)CCCC5=O)[C@H](O)[C@]5(CC)C=CCN6CC[C@]43[C@@H]65)C2)C1 [4-Desacetyl VLB Hydrazide N^2 --Glutarimide Sulfate]?
% INHIBITION ([2]; i.v. x 1, 0.0625 mg/kg): 79%; % INHIBITION ([2]; i.v. x 1, 0.125 mg/kg): 80%; % INHIBITION ([2]; i.v. x 1, 0.25 mg/kg): 100%; % INHIBITION ([2]; i.v. x 1, 0.5 mg/kg): 100%; % INHIBITION ([2]; i.v. x 1, 1 mg/kg): 100%; In vivo test: Toxic ([2]; i.v. x 1, 2 mg/kg): Toxic; In vivo test: Toxic ([2]; i.v. x 1, 4 mg/kg): Toxic; In vivo test: Toxic ([2]; i.v. x 1, 8 mg/kg): Toxic

What does the source list for “VLB 3-carboxhydrazide N^2 --succinimide sulfate”?
% INHIBITION ([1]; C-26, i.v. 1 & 7, dose 0.25): 0%; % INHIBITION ([1]; C-26, i.v. 1 & 7, dose 0.5): 0%; % INHIBITION ([1]; C-26, i.v. 1 & 7, dose 1): 50%; % INHIBITION ([1]; C-26, i.v. 1 & 7, dose 2): 73%; In vivo test: Toxic ([1]; C-26, i.v. 1 & 7, dose 4): Toxic; IC50 (50% minimum inhibitory concentration) [5]: 0.01 µg/mL; % INHIBITION ([2]; i.v. x 1, 0.0625 mg/kg): 11%; % INHIBITION ([2]; i.v. x 1, 0.125 mg/kg): 94%; % INHIBITION ([2]; i.v. x 1, 0.25 mg/kg): 100%; % INHIBITION ([2]; i.v. x 1, 0.5 mg/kg): 100%; % INHIBITION ([2]; i.v. x 1, 1 mg/kg): 100%; In vivo test: Toxic ([2]; i.v. x 1, 2 mg/kg): Toxic; In vivo test: Toxic ([2]; i.v. x 1, 4 mg/kg): Toxic; % INHIBITION ([3]; X5563, i.v. 1 & 7, dose 0.25): 25%; % INHIBITION ([3]; X5563, i.v. 1 & 7, dose 0.5): 30%; % INHIBITION ([3]; X5563, i.v. 1 & 7, dose 1): 59%; % INHIBITION ([3]; X5563, i.v. 1 & 7, dose 2): 94%; In vivo test: Toxic ([3]; X5563, i.v. 1 & 7, dose 4): Toxic; % INHIBITION ([4]; B-16 Sub. C., i.v. 1 & 7, dose 0.5): 51%; % INHIBITION ([4]; B-16 Sub. C., i.v. 1 & 7, dose 1): 82%; % INHIBITION ([4]; B-16 Sub. C., i.v. 1 & 7, dose 2): 91%; In vivo test: Toxic ([4]; B-16 Sub. C., i.v. 1 & 7, dose 4): Toxic; % INHIBITION ([4]; B-16 Sub. C., i.v. 1 & 7, dose 25 (so in the source)): 8%

What does the source list for CCC(=O)O[C@@H]1[C@]2(CC)C=CCN3CC[C@@]4(c5cc([C@@]6(C(=O)OC)C[C@H]7CN(CCc8c6[nH]c6ccccc86)C[C@](O)(CC)C7)c(OC)cc5N(C)[C@H]4[C@@]1(O)C(=O)NN1C(=O)CCC1=O)[C@@H]32 [4-Propionyl VLB 3-carboxhydrazide N^2 --succinimide sulfate]?
IC50 [5]: 0.01 µg/mL; % INHIBITION ([2]; i.v. x 1, 1.25 mg/kg): 100%; % INHIBITION ([2]; i.v. x 1, 2.5 mg/kg): 100%; In vivo test: Toxic ([2]; i.v. x 1, 5 mg/kg): Toxic

With CC[C@]1(O)C[C@@H]2CN(CCc3c([nH]c4ccccc34)[C@@](C(=O)OC)(c3cc4c(cc3OC)N(C)[C@H]3[C@@](O)(C(=O)NN5C(=O)CCC5=O)[C@H](OC(=O)CCC(=O)O)[C@]5(CC)C=CCN6CC[C@]43[C@@H]65)C2)C1 [4-Succinoyl VLB 3-carboxhydrazide N^2-succinimide] as the molecule, how does the IC50 [5] read?
The IC50 was 0.5 µg/mL (≈ 0.526 µM).

Which results are given for CC[C@]1(O)C[C@@H]2CN(CCc3c([nH]c4ccccc34)[C@@](C(=O)OC)(c3cc4c(cc3OC)N(C)[C@H]3[C@@](O)(C(=O)NN5C(=O)CCC5=O)[C@H](O)[C@]5(CC)C=CCN6CC[C@]43[C@@H]65)C2)C1 [4-Desacetyl VLB 3-carboxhydrazide N^2 --succinimide sulfate]?
IC50 [5]: 0.02 µg/mL; % INHIBITION ([2]; i.v. x 1, 1.25 mg/kg): 100%; % INHIBITION ([2]; i.v. x 1, 2.5 mg/kg): 100%; In vivo test: Toxic ([2]; i.v. x 1, 5 mg/kg): Toxic

Which “activity against transplanted tumor” value [1] does the source give for CC[C@]1(O)C[C@@H]2CN(CCc3c([nH]c4ccccc34)[C@@](C(=O)OC)(c3cc4c(cc3OC)N(C)[C@H]3[C@@](O)(C(=O)NN5C(=O)CCCC5=O)[C@H](O)[C@]5(CC)C=CCN6CC[C@]43[C@@H]65)C2)C1 [4-desacetyl VLB 3-carboxhydrazide N^2-glutarimide] here?
The value was “outstanding activity”.

And the “activity against transplanted tumor” value [2]?
Its value is “outstanding activity”.

What about the “activity against transplanted tumor” value [3] of the same molecule?
Its value is “outstanding activity”.

And the “activity against transplanted tumor” value [4]?
Its value is “outstanding activity”.
